We go through 15 molecules from patent publication US20060222657A1, “Polypeptide transduction and fusogenic peptides” (priority 2003, published 2006).

Data set [1] concerns tex.loxP.EG cells. Briefly: TAT-Cre mediated recombination of lox-stop-lox eGFP reporter, flow cytometry of live cells. The settings on record: for effect on TAT-Cre recombination (endocytosis inhibitors): pretreated 30′ in serum-free media, then TAT-Cre for 1 h, replated overnight; for effect on TAT-Cre recombination (free glycosaminglyans): incubated with TAT-Cre 1 hr in serum-free media, eGFP after 16 hr. In kind it is cell-based, murine.

Data set [2] has as its system 3T3 loxP.lacZ cells. Briefly: TAT-Cre recombination of lacZ reporter, in situ β-galactosidase staining. The data set is classed as cell-based. Particulars: 100 μM and 200 μM chloroquine with sub-threshold TAT-Cre, overnight, DMEM +10% serum.
Experimental: 3T3 loxP.lacZ cells containing a lacZ reporter expressed after recombination were grown in DMEM (Invitrogen) containing 10% fetal bovine serum. Following recombination cells expressing lacZ were assayed by in situ beta-galactosidase staining (Stratagene).
To determine the effect of endosomal release by chloroquine, 3T3 loxP.lacZ cells were treated with 0. 25 μM TAT-Cre and 0-200 μM chlorocguine (Sigma) in DMEM +10% FBS overnight. LacZ expression was measured by in situ β-galactosidase staining (Stratagene).
Data set [3] has as its system 3T3 LacZ reporter cells. Briefly: Cytotoxicity (loss of cells) of chloroquine treatment. The data set is classed as cell-based. The settings on record: effective dose of chloroquine; multiple several cell lines. The procedure:
To recombine DNA and induce eGFP expression, TAT-Cre must escape from macropinosomes. […] Therefore to enhance release from macropinosomes, 3T3 LacZ reporter cells were treated with a sub-threshold dose of TAT-Cre in combination with increasing concentrations of chloroquine, an ion-transporting ATPase inhibitor that prevents vesicle acidification leading to endosomal disruption (FIG. 5a).

In data set [4] the test system is mammalian cells. Briefly: TAT-Cre transduction efficiency and cytotoxicity with endosomal release agents (summary statement). The data set is classed as cell-based.
In data set [5] the test system is tex.loxP.EG cells. Briefly: TAT-Cre-488 and FM4-64 internalization by flow cytometry. In kind it is cell-based, murine. The settings on record: nystatin 30′ pretreatment, then TAT-Cre-488 and FM4-64 for 1 h. The procedure:
Recombination experiments. To measure the rate of TAT-Cre internalization, tex.loxP.EG cells were plated at 5×10^5 cells/well and treated with 0.5 μM TAT-Cre in RPMI +/− 10% FBS. After each time period, cells were trypsinized for 2′, washed and replated into complete media overnight. For all drug treatments [0-50 μg/mL chondroitin sulfate A, B, or C (Sigma), 0-25 μg/mL heparin (Sigma), 0-100 μg/mL nystatin (Fluka), 0-5 mM […] (Sigma), 0-5 mM amiloride (Sigma) and 0-10 μM cytochalasin D (Sigma)], cells were washed and pretreated for 30′ in serum-free media before the addition of TAT-Cre. Cells were maintained for 1 h in the presence of inhibitors (except for cyclodextrin) aftex which they were washed twice and replated overnight in media containing serum. To measure the effect of nystatin on TAT-Cre internalization, tex.loxP.EG cells were pretreated as described with 10, 25 or 50 μg/mL nystatin for 30′ before the addition of 2 μM TAT-Cre-488 and […] FM4-64. After 1 h, the cells were trypsinized and the fluorescence measured by flow cytometry. […] LacZ expression was measured by in situ β-galactosidase staining (Stratagene). For peptide treatments, tex.loxP.EG cells maintained in RPMI +10% FBS were incubated TAT-Cre and either […] HA2-tat or tat peptide for 16-20 h after which eGFP expression was measured by flow cytometry. […]

In data set [6] the test system is cells. Particulars: cited from earlier work.
Data set [7] has as its system tex.loxP.EG T cells. Briefly: Cell surface binding of TAT-Cre. Particulars: free glycosaminglyans in increasing concentrations, 1 hr, serum-free media. In kind it is cell-based, murine. How it is done: Full-length TAT protein has previously been reported to bind strongly to cell surface heparin sulfate proteoglycans. […] To determine whether cell surface binding was a necessary and prerequisite step for TAT-Cre internalization, cells were incubated with TAT-Cre and increasing concentrations of free glycosaminglyans for 1 hr in serum-free media, then washed and replated the cells in complete media, and measured eGFP expression after 16 hr.

Data set [8] relates to cell surface. The settings on record: increasing concentrations of polyanions; cited from earlier work.
The subject of data set [9] is viral promoter within cells in culture. The settings on record: cited from earlier work.

Entries after “also recorded” stand apart in the source; their conditions may differ. Where no end group is shown, it is not given here. [ ]: non-standard residue; d: D form.

For the molecule `N=C(N)NC(=O)c1nc(Cl)c(N)nc1N` [amiloride], the “effect on TAT-Cre recombination (endocytosis inhibitors)” value (shortened to “effect … (endocytosis inhibitors)”) in [1] was “dose-dependent inhibition of TAT-Cre transduction into the cells and lack of recombination; also recorded: dose-dependent decrease in recombination”.

On to `CCN(CC)CCCC(C)Nc1ccnc2cc(Cl)ccc12` (stereo not drawn) [chloroquine], for which the “effect on TAT-Cre recombination and LacZ expression” value in [2] was “significant increase in recombination and LacZ expression; also recorded: increases TAT-Cre recombination”. Moreover, the cytotoxicity entry in data set [3] is on record as “extensive cytotoxicity”. Moreover, in data set [4], the cytotoxicity entry is listed as “extensive cytotoxicity” and the “effect on transduction efficiency of TAT-Cre” value is “moderately increased transduction efficiency”.

In the case of `C=C1[C@@H](C)[C@H]2[C@H](Cc3ccccc3)NC(=O)[C@]23[C@H](OC(C)=O)/C=C/[C@@](C)(O)C(=O)[C@@H](C)C/C=C/[C@H]3[C@@H]1O` [cytochalasin D], the “effect … (endocytosis inhibitors)” value in data set [1] was “dose-dependent inhibition of TAT-Cre transduction into the cells and lack of recombination; also recorded: dose-dependent decrease in recombination”.

As to `C[C@@H]1[C@H](O)[C@@H](C)/C=C/C=C/CC/C=C/C=C/C=C/C=C/C(O[C@H]2O[C@H](C)[C@@H](O)[C@H](N)[C@@H]2O)CC2O[C@](O)(CC(O)C(O)CCC(O)CC(O)CC(O)CC(=O)O[C@H]1C)CC(O)C2C(=O)O` (stereo partly drawn) [nystatin], in data set [1] (nystatin 30′ in serum-free media, then TAT-Cre +/− 5 mM HA2-TAT for 1 h), the “effect of nystatin pretreatment on HA2-TAT-mediated enhancement of recombination” value was “inhibited HA2-TAT-mediated enhancement of recombination; also recorded: blocks the effect of HA2-TAT peptide”. Moreover, the “effect … (endocytosis inhibitors)” value in data set [1] is “dose-dependent inhibition of recombination”. Moreover, in data set [5], the “FM4-64 endosomal dye internalization after nystatin treatment” value is on record as “only a minor decrease” and the “TAT-Cre-488 internalization after nystatin treatment” value is “near complete loss of TAT-Cre-488 internalization”.

For the molecule `OC[C@H]1O[C@@H]2O[C@H]3[C@H](O)[C@@H](O)[C@@H](O[C@H]4[C@H](O)[C@@H](O)[C@@H](O[C@H]5[C@H](O)[C@@H](O)[C@@H](O[C@H]6[C@H](O)[C@@H](O)[C@@H](O[C@H]7[C@H](O)[C@@H](O)[C@@H](O[C@H]8[C@H](O)[C@@H](O)[C@@H](O[C@H]1[C@H](O)[C@H]2O)O[C@@H]8CO)O[C@@H]7CO)O[C@@H]6CO)O[C@@H]5CO)O[C@@H]4CO)O[C@@H]3CO` [β-cyclodextrin], in data set [1], the “effect … (endocytosis inhibitors)” value is reported as “dose-dependent inhibition of recombination”.

For the molecule FITKALGISYGRKKRR [TAT-(37-53)], the “cell internalization and nuclear localization” value in data set [6] is recorded as “not able to transduce into cells”.

As for “GRKKRRQ RRRPPQ (GRKKRRQRRRPPQ) [TAT-(48-60)]”, in data set [6], the “cell internalization and nuclear localization” value was “fully retained the ability for cell internalization and nuclear localization”; the “transduction efficiency relative to other active peptide sequences” value is “more efficiently transduced than other active peptide sequences”.

As to “GRKKRRQRRR (G[dR][dK][dK][dR][dR][dQ][dR][dR][dR]) [TAT D-isomer peptide, control TAT peptide]”, the “effect of peptide on TAT-Cre recombination (in words)” value in [1] is “only minor increases in recombination”.

For the molecule LGISYGRKKRRQRRRPPQ [TAT-(43-60)], in [6], the “cell internalization and nuclear localization” value was “fully retained the ability for cell internalization and nuclear localization”.

In the case of chondroitin sulfate B, the “effect on TAT-Cre recombination (free glycosaminglyans)” value (“effect … (free glycosaminglyans)” for short) in [1] is “strongly inhibited subsequent recombination”. Further, in [7], the “effect on surface binding of TAT-Cre” value is reported as “prevented surface binding of TAT-Cre”.

Take chondroitin sulfate C: the “effect … (free glycosaminglyans)” value in data set [1] is on record as “strongly inhibited subsequent recombination”. Moreover, the “effect on surface binding of TAT-Cre” value in data set [7] was “prevented surface binding of TAT-Cre”.

For the molecule dextran sulphate, the “effect on intracellular accumulation of TAT” value in data set [8] was “competitively blocked”.

For the molecule heparin, the “effect … (free glycosaminglyans)” value in data set [1] is reported as “strongly inhibited subsequent recombination”. Also, the “effect on surface binding of TAT-Cre” value in data set [7] is recorded as “prevented surface binding of TAT-Cre”. For the same molecule, the “effect on intracellular accumulation of TAT” value in [8] is recorded as “competitively blocked”.

B1: TAT protein: HIV-1 transcriptional activator TAT protein, full length (protein)
chain: MEPVDPRLEPWKHPGSQPKTACTNCYCKKCCFHCQVCFITKALGISYGRKKRRQRRRPPQGSQTHQVSLSKQPTSQSRGDPTGPKE
modifications: transducing protein
Turning to B1, in [9] (added to the culture media, no external perturbations), the “concentration sufficient to induce reporter activity” value was 1 nM. For the same molecule, in data set [9] (all cell types used), the “treatment time of maximal increase in biological activity” value is on record as 5 minutes.

B2: Cre: control Cre protein without TAT, expressed and purified under identical conditions (protein, UniProt P06956 1-343, looked up)
Recombinase cre: MSNLLTVHQNLPALPVDATSDEVRKNLMDMFRDRQAFSEHTWKMLLSVCRSWAAWCKLNNRKWFPAEPEDVRDYLLYLQARGLAVKTIQQHLGQLNMLHRRSGLPRPSDSNAVSLVMRRIRKENVDAGERAKQALAFERTDFDQVRSLMENSDRCQDIRNLAFLGIAYNTLLRIAEIARIRVKDISRTDGGRMLIHIGRTKTLVSTAGVEKALSLGVTKLVERWISVSGVADDPNNYLFCRVRKNGVAAPSATSQLSTRALEGIFEATHRLIYGAKDDSGQRYLAWSGHSARVGAARDMARAGVSIPEIMQAGGWTNVNIVMNYIRNLDSETGAMVRLLEDGD
As to B2, the “site specific recombination and eGFP expression after treatment” value in data set [1] (tex.loxP.EG cells, eGFP measured 16-20 h later by flow cytometry) was “failed to undergo recombination and express eGFP”.
